The values that follow come from patent USRE48461E1, “Modulation of androgen receptor expression” (Ionis Pharmaceuticals, Inc., priority 2012, dated 2021).

Oligonucleotides are written 5' to 3', each unit as a sugar letter and its base; * is a phosphorothioate linkage, no mark a phosphodiester; rarer units and linkages stand in square brackets, end groups in braces. Plain capitals give the bases only. e = 2'-O-(2-methoxyethyl) (MOE); k = constrained ethyl (cEt); [5mC] = 5-methylcytosine; d = 2'-deoxy (DNA)

In data set [1] the test system is AR mRNA. In words: Antisense inhibition of human AR in HuVEC cells, single concentration (electroporation, qRT-PCR RTS3559). In kind it is cell-based. On the procedure:
Antisense oligonucleotides were designed targeting an AR nucleic acid and were tested for their effects on AR mRNA in vitro. The antisense oligonucleotides were tested in a series of experiments that had similar culture conditions. […] Human primer probe set RTS3559 (forward sequence [NT], designated herein as SEQ ID NO: 9; reverse sequence [NT], designated herein as SEQ ID NO: 10; probe sequence [NT], designated herein as SEQ ID NO: 11) was used to measure mRNA levels. AR mRNA levels were adjusted according to total RNA content, as measured by RIBOGREEN®. […] A total of 155 oligonucleotides were tested. Additional antisense oligonucleotides were designed targeting an AR nucleic acid and were tested for their effects on AR mRNA in vitro. […] Human primer probe set RTS3559 was used to measure mRNA levels. AR mRNA levels were adjusted according to total RNA content, as measured by RIBOGREEN®. […] A total of 82 oligonucleotides were tested. Additional antisense oligonucleotides were designed targeting an AR nucleic acid and were tested for their effects on AR mRNA in vitro. […] Human primer probe set RTS3559 was used to measure mRNA levels. AR mRNA levels were adjusted according to total RNA content, as measured by RIBOGREEN®. […] A total of 40 oligonucleotides were tested. Additional antisense oligonucleotides were designed targeting an AR nucleic acid and were tested for their effects on AR mRNA in vitro. […] Human primer probe set RTS3559 was used to measure mRNA levels. AR mRNA levels were adjusted according to total RNA content, as measured by RIBOGREEN®. […] A total of 75 oligonucleotides were tested. Additional antisense oligonucleotides were designed targeting an AR nucleic acid and were tested for their effects on AR mRNA in vitro. […] Human primer probe set RTS3559 was used to measure mRNA levels. AR mRNA levels were adjusted according to total RNA content, as measured by RIBOGREEN®. […] A total of 616 oligonucleotides were tested. Additional antisense oligonucleotides were designed targeting an AR nucleic acid and were tested for their effects on AR mRNA in vitro. […] Human primer probe set RTS3559 was used to measure mRNA levels. AR mRNA levels were adjusted according to total RNA content, as measured by RIBOGREEN®. […] A total of 385 oligonucleotides were tested.

Data set [2] relates to AR mRNA. Put plainly: Dose-dependent antisense inhibition of human AR in HuVEC cells (electroporation, qRT-PCR RTS3559, IC50). The class given is cell-based. The method, then:
(§1) After a treatment period of approximately 16 hours, RNA was isolated from the cells and AR mRNA levels were measured by quantitative real-time PCR. Human AR primer probe set RTS3559 was used to measure mRNA levels. AR mRNA levels were adjusted according to total RNA content, as measured by RIBOGREEN®. […] The antisense oligonucleotides were tested in a series of experiments that had similar culture conditions.
as §1, §1, §1, §1
(§2) After a treatment period of approximately 16 hours, RNA was isolated from the cells and AR mRNA levels were measured by quantitative real-time PCR. Human AR primer probe set RTS3559 was used to measure mRNA levels. AR mRNA levels were adjusted according to total RNA content, as measured by RIBOGREEN®.
as §2
A general note: In qPCR the cycle at which signal appears reflects the starting amount.

[3] abbreviates: Table 33, 46.9 nM, HuVEC, electroporation, approximately 16 hours.
Setting [4] is: Table 33, 187.5 nM, HuVEC, electroporation, approximately 16 hours.
Setting [5] is: Table 33, 750.0 nM, HuVEC, electroporation, approximately 16 hours.
Where [6] appears, read: Table 33, 3000.0 nM, HuVEC, electroporation, approximately 16 hours.
Setting [7] is: Table 33, HuVEC, electroporation, approximately 16 hours.
[8] abbreviates: Table 21, 500 nM oligonucleotide, electroporation, approximately 24 hours, relative to untreated control.

The % inhibition is the relative decrease from the control value, in per cent. Lower therefore signals little suppression. In general, IC50 refers to the concentration at which inhibition is half-maximal. Consider “583667 (antisense k[5mC]*kG*k[5mC]*dT*d[5mC]*dT*dG*dA*d[5mC]*dA*dG*d[5mC]*d[5mC]*kT*k[5mC]*kA) [compound 583667]”, for which the “% inhibition” value in data set [1] (500 nM ASO, ~24 h, Table 17) was 42%. For the same substance, in data set [2] (Table 30, 46.9 nM, HuVEC, electroporation, approximately 16 hours), the “percent inhibition of AR, 46.9 nM” value is given as 35%. For the same substance, the “percent inhibition of AR, 187.5 nM” value in data set [2] (Table 30, 187.5 nM, HuVEC, electroporation, approximately 16 hours) was 55%. In addition, in data set [2] (Table 30, 750.0 nM, HuVEC, electroporation, approximately 16 hours), the “percent inhibition of AR, 750.0 nM” value was 73%. In addition, in data set [2] (Table 30, 3000.0 nM, HuVEC, electroporation, approximately 16 hours), the “percent inhibition of AR, 3000.0 nM” value is 82%. In data set [2] (Table 30, HuVEC, electroporation, approximately 16 hours), it took 140 nM to reach half-maximal inhibition (IC50).

For “586225 (kG*kT*kT*kG*kA*dT*dT*dT*dA*dA*dT*dG*dG*kT*kT*kG; antisense) [compound 586225]”, the “% inhibition” value in data set [1] (1,000 nM ASO, ~24 h, Table 13) was 88%. Also, the “percent inhibition of AR” value in data set [2] (46.9 nM, HuVEC, ~16 h, Table 15) was found to be 17%; in data set [2] (187.5 nM, HuVEC, ~16 h, Table 15) it was 61%; in data set [2] (750.0 nM, HuVEC, ~16 h, Table 15) it was 89%; in data set [2] (3000.0 nM, HuVEC, ~16 h, Table 15), 97%. Moreover, the IC50 was 130 nM in data set [2] (HuVEC cells, electroporation) and 130 nM in data set [2] (HuVEC, ~16 h, Table 15). Besides, the “inhibition of AR mRNA at 46.9 nM” value in data set [2] (HuVEC cells, electroporation, 46.9 nM ASO) turned out to be 17%. The “inhibition of AR mRNA at 187.5 nM” value in data set [2] (HuVEC cells, electroporation, 187.5 nM ASO) is reported as 61%. In addition, the “inhibition of AR mRNA at 750.0 nM” value in data set [2] (HuVEC cells, electroporation, 750.0 nM ASO) turned out to be 89%. Moreover, the “inhibition of AR mRNA at 3000.0 nM” value in data set [2] (HuVEC cells, electroporation, 3000.0 nM ASO) was 97%.

In the case of “583853 (kT*kG*k[5mC]*dA*dT*dT*d[5mC]*dG*dG*d[5mC]*d[5mC]*dA*dA*kT*kG*kG; antisense) [compound 583853]”, the “% inhibition” value in data set [1] (Table 20, 500 nM oligonucleotide, electroporation, approximately 24 hours, relative to untreated control) turned out to be 33%. For the same substance, the “percent inhibition of AR, 46.9 nM” value in data set [2] (setting [3]) worked out at 24%. Besides, the “percent inhibition of AR, 187.5 nM” value in data set [2] (setting [4]) is reported as 51%. Besides, the “percent inhibition of AR, 750.0 nM” value in data set [2] (setting [5]) was 70%. Further, the “percent inhibition of AR, 3000.0 nM” value in data set [2] (setting [6]) was 80%. Also, the half-inhibitory concentration (IC50) in data set [2] (setting [7]) is 210 nM.

Turning to “569223 (antisense eG*eT*kT*kG*kA*dT*dT*dT*dA*dA*dT*dG*dG*kT*kT*kG) [compound 569223]”, the “% inhibition” value in data set [1] (1,000 nM ASO, ~24 h, Table 13) is 59%. The “percent inhibition of AR” value in data set [2] (31.25 nM, HuVEC, ~16 h, Table 14) came to 21%; in data set [2] (62.5 nM, HuVEC, ~16 h, Table 14), 20%; in data set [2] (125.0 nM, HuVEC, ~16 h, Table 14), 30%; in data set [2] (500.0 nM, HuVEC, ~16 h, Table 14), 73%; in data set [2] (1000.0 nM, HuVEC, ~16 h, Table 14), 87%. Moreover, the 50% inhibitory concentration (IC50) in data set [2] (HuVEC, ~16 h, Table 14) stood at 191 nM.

For “583919 (kG*kT*kA*dG*dT*d[5mC]*dG*d[5mC]*dG*dA*d[5mC]*dT*d[5mC]*kT*kG*kG; antisense) [compound 583919]”, in data set [1] (setting [8]), the “% inhibition” value is given as 55%. Also, the “percent inhibition of AR, 46.9 nM” value in data set [2] (setting [3]) came to 27%. Also, in data set [2] (setting [4]), the “percent inhibition of AR, 187.5 nM” value came to 60%. In addition, in data set [2] (setting [5]), the “percent inhibition of AR, 750.0 nM” value came out at 85%. Moreover, in data set [2] (setting [6]), the “percent inhibition of AR, 3000.0 nM” value is 91%. The half-maximal inhibitory concentration (IC50) in data set [2] (setting [7]) came to 140 nM.

Regarding “583969 (k[5mC]*k[5mC]*kT*dT*d[5mC]*dT*dT*d[5mC]*dG*dG*d[5mC]*dT*dG*kT*kG*kA; antisense) [compound 583969]”, in data set [1] (setting [8]), the “% inhibition” value came out at 44%. In addition, in data set [2] (setting [3]), the “percent inhibition of AR, 46.9 nM” value is 12%. Besides, the “percent inhibition of AR, 187.5 nM” value in data set [2] (setting [4]) is on record as 26%. In addition, the “percent inhibition of AR, 750.0 nM” value in data set [2] (setting [5]) is on record as 66%. In addition, the “percent inhibition of AR, 3000.0 nM” value in data set [2] (setting [6]) amounted to 86%. Besides, in data set [2] (setting [7]), the half-inhibitory concentration (IC50) was determined as 440 nM.
